# Laboratory results as given in PubChem BioAssay (NCI).
#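 Test compounds were applied to cells in 96-well plates for 48 hours at 5 doses. The concentration for 50% growth inhibition is given as GI50. TGI is the concentration that stops growth completely.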
# Key:
# Assay in all cases: growth of human tumour cells (NCI), 48 h
# [1] = test system: 786-0 renal
# [2] = test system: A498 renal
# [3] = test system: A549 NSCLC
# [4] = test system: ACHN renal
# [5] = test system: BT-549 breast
# [6] = test system: CAKI-1 renal
# [7] = test system: CCRF-CEM leukemia
# [8] = test system: COLO 205 colon
# [9] = test system: DU-145 prostate
# [10] = test system: EKVX NSCLC
# [11] = test system: HCC-2998 colon
# [12] = test system: HCT-116 colon
# [13] = test system: HCT-15 colon
# [14] = test system: HL-60(TB) leukemia
# [15] = test system: HOP-62 NSCLC
# [16] = test system: HOP-92 NSCLC
# [17] = test system: HS 578T breast
# [18] = test system: HT29 colon
# [19] = test system: IGROV1 ovarian
# [20] = test system: K-562 leukemia
# [21] = test system: KM12 colon
# [22] = test system: LOX IMVI melanoma
# [23] = test system: M14 melanoma
# [24] = test system: MALME-3M melanoma
# [25] = test system: MCF7 breast
# [26] = test system: MDA-MB-231 breast
# [27] = test system: MDA-MB-435
# [28] = test system: MOLT-4 leukemia
# [29] = test system: NCI-H226 lung
# [30] = test system: NCI-H23 lung
# [31] = test system: NCI-H460 lung
# [32] = test system: NCI-H522 lung
# [33] = test system: NCI/ADR-RES ovarian
# [34] = test system: OVCAR-3 ovarian
# [35] = test system: OVCAR-4 ovarian
# [36] = test system: OVCAR-5 ovarian
# [37] = test system: OVCAR-8 ovarian
# [38] = test system: PC-3 prostate
# [39] = test system: RPMI-8226 leukemia
# [40] = test system: RXF 393 renal
# [41] = test system: SF-268 CNS
# [42] = test system: SF-295 CNS
# [43] = test system: SF-539 CNS
# [44] = test system: SK-MEL-2 melanoma
# [45] = test system: SK-MEL-28 melanoma
# [46] = test system: SK-MEL-5 melanoma
# [47] = test system: SK-OV-3 ovarian
# [48] = test system: SN12C renal
# [49] = test system: SNB-19 CNS
# [50] = test system: SNB-75 CNS
# [51] = test system: SR leukemia
# [52] = test system: SW-620 colon
# [53] = test system: T-47D breast
# [54] = test system: TK-10 renal
# [55] = test system: U251 CNS
# [56] = test system: UACC-257 melanoma
# [57] = test system: UACC-62 melanoma
# [58] = test system: UO-31 renal
structure (smiles),measurement,setting,value
CCCC(=O)NC(c1ccc(N(CC)CC)cc1)c1cc(C)c2cccnc2c1O (stereo not drawn),GI50,[1],763 nM
same,TGI,[1],> 38500 nM
same,GI50,[2],> 100000 nM
same,TGI,[2],> 100000 nM
same,GI50,[3],737 nM
same,TGI,[3],> 100000 nM
same,GI50,[4],422 nM
same,TGI,[4],> 24300 nM
same,GI50,[5],1040 nM
same,TGI,[5],> 59200 nM
same,GI50,[6],381 nM
same,GI50,[7],407 nM
same,TGI,[7],> 100000 nM
same,GI50,[8],398 nM
same,TGI,[8],> 100000 nM
same,GI50,[9],710 nM
same,TGI,[9],> 100000 nM
same,GI50,[10],313 nM
same,TGI,[10],5040 nM
same,GI50,[11],570 nM
same,TGI,[11],> 100000 nM
same,GI50,[12],381 nM
same,TGI,[12],> 100000 nM
same,GI50,[13],323 nM
same,TGI,[13],> 100000 nM
same,GI50,[14],331 nM
same,TGI,[14],4850 nM
same,GI50,[15],511 nM
same,TGI,[15],> 100000 nM
same,GI50,[16],306 nM
same,TGI,[16],> 100000 nM
same,GI50,[17],358 nM
same,TGI,[17],> 100000 nM
same,GI50,[18],492 nM
same,TGI,[18],> 100000 nM
same,GI50,[19],439 nM
same,TGI,[19],14600 nM
same,GI50,[20],336 nM
same,TGI,[20],> 100000 nM
same,GI50,[21],454 nM
same,TGI,[21],> 100000 nM
same,GI50,[22],496 nM
same,TGI,[22],> 100000 nM
same,GI50,[23],462 nM
same,TGI,[23],5120 nM
same,GI50,[24],1450 nM
same,TGI,[24],> 87300 nM
same,GI50,[25],303 nM
same,TGI,[25],> 100000 nM
same,GI50,[26],539 nM
same,TGI,[26],> 100000 nM
same,GI50,[27],409 nM
same,TGI,[27],> 48600 nM
same,GI50,[28],397 nM
same,TGI,[28],> 100000 nM
same,GI50,[29],513 nM
same,TGI,[29],4260 nM
same,GI50,[30],462 nM
same,TGI,[30],> 100000 nM
same,GI50,[31],247 nM
same,GI50,[32],319 nM
same,GI50,[33],366 nM
same,TGI,[33],> 100000 nM
same,GI50,[34],374 nM
same,TGI,[34],> 100000 nM
same,GI50,[35],394 nM
same,TGI,[35],> 100000 nM
same,GI50,[36],791 nM
same,TGI,[36],> 100000 nM
same,GI50,[37],381 nM
same,TGI,[37],> 100000 nM
same,GI50,[38],477 nM
same,TGI,[38],> 100000 nM
same,GI50,[39],520 nM
same,TGI,[39],> 100000 nM
same,GI50,[40],1450 nM
same,TGI,[40],> 26900 nM
same,GI50,[41],438 nM
same,TGI,[41],32600 nM
same,GI50,[42],352 nM
same,TGI,[42],> 100000 nM
same,GI50,[43],462 nM
same,TGI,[43],4560 nM
same,GI50,[44],399 nM
same,TGI,[44],> 42000 nM
same,GI50,[45],561 nM
same,TGI,[45],> 100000 nM
same,GI50,[46],639 nM
same,TGI,[46],5530 nM
same,GI50,[47],635 nM
same,TGI,[47],> 100000 nM
same,GI50,[48],828 nM
same,TGI,[48],> 100000 nM
same,GI50,[49],464 nM
same,TGI,[49],> 100000 nM
same,GI50,[50],199 nM
same,TGI,[50],1800 nM
same,GI50,[51],388 nM
same,TGI,[51],> 54400 nM
same,GI50,[52],522 nM
same,TGI,[52],> 100000 nM
same,GI50,[53],675 nM
same,TGI,[53],> 100000 nM
same,GI50,[54],489 nM
same,TGI,[54],> 100000 nM
same,GI50,[55],386 nM
same,TGI,[55],> 100000 nM
same,GI50,[56],834 nM
same,TGI,[56],> 24600 nM
same,GI50,[57],347 nM
same,TGI,[57],1390 nM
same,GI50,[58],302 nM
same,TGI,[58],5670 nM
